Consider one compound from PubChem BioAssay AID488790 (NMMLSC, 2010).

Each structure is given as a SMILES string.

The experiment concerns S. cerevisiae AGP1-GFP strain, flow cytometry fluorescence, 3 h. Put plainly: AGP1-GFP level modulation, analog dose series – cell-based, flow cytometry, S. cerevisiae, cherry pick 3, SAR follow-up (AID 488790). For orientation: Flow cytometry measures light scatter and fluorescence of single cells or particles in a stream.

By EC50 is commonly meant the concentration giving half of the maximal effect. On to `CCOC(=O)CS(=O)(=O)c1nc(-c2ccccc2)cc(C(F)(F)F)n1`, for which the EC50 was 4.59 µM.
